Source: PMC9699600, “Characterization of a Family of Scorpion Toxins Modulating Ca^2+-Activated Cl^− Current in Vascular Myocytes” (Toxins, 2022)

What was measured:
[1] = target: T1, Ca2+-activated Cl− current (TMEM16A/Ano1) in rat portal vein myocytes (Rattus norvegicus, UniProt A0A8I6GL36); assay: Ca2+-activated Cl− current evoked by caffeine, whole-cell patch clamp; format: cell-based; settings: 1 µM external application, 10 mM caffeine, holding potential −50 mV
T1 construct: Isolated myocytes from rat portal veins were obtained by enzymatic dispersion; endogenous in cells; host or cells: freshly dissociated rat portal vein smooth muscle cells (short-term primary culture, used within 24 h)
T1 sequence (A0A8I6GL36 1-990): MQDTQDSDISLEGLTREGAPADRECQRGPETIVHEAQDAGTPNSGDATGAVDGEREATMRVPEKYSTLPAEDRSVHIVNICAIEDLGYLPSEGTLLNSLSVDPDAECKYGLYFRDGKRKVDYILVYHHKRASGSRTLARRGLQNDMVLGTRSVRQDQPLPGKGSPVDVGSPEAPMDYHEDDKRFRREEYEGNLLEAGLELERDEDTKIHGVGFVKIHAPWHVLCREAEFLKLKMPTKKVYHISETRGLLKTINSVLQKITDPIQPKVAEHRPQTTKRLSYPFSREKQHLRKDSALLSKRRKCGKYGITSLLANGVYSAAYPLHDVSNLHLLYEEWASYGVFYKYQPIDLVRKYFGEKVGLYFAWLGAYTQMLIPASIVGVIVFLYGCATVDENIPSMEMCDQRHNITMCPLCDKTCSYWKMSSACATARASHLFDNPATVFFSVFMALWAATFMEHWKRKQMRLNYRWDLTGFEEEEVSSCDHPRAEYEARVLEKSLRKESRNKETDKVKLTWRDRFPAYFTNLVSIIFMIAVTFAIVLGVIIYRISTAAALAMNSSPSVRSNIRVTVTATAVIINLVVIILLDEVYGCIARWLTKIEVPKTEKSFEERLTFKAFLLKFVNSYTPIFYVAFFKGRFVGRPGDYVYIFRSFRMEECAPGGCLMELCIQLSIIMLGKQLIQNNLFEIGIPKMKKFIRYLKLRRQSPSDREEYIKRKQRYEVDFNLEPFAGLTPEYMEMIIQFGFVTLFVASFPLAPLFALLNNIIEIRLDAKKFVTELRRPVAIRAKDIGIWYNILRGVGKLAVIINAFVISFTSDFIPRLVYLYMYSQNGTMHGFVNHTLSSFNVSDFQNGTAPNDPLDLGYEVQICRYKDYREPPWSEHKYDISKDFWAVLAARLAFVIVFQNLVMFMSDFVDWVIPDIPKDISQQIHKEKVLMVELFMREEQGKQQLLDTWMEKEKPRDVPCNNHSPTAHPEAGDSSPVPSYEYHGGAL
Procedure: In rat portal vein myocytes, at a holding potential of −50 mV, the external application of 10 mM caffeine induces a transient current depending on an increase in cytoplasmic Ca^2+ concentration, this current was characterized as Cl^− current [9] in the used experimental conditions. The amplitude of the Ca^2+-activated Cl^− current in our setup was 190 ± 20 pA (n = 101).
Isolated myocytes from rat portal veins were obtained by enzymatic dispersion, as described previously (Morel et al. 1996).
Voltage-clamp and membrane current recordings were made with a standard patch-clamp technique using a List EPC-7 patch-clamp amplifier (Darmstadt-Eberstadt, Germany). Patch pipettes had resistances of 3–4 MΩ. When [Ca^2+]i measurements were carried out simultaneously, Indo-1 (50 µM) was added to the pipette solution in the whole-cell recording mode and [Ca^2+]i was estimated from the 405/480 nm fluorescence ratio, using a calibration determined within cells, as previously described [36]. Patch-clamp experiments were carried out at 30 ± 1 °C. […]
The pooled data of n experiments are given as mean ± standard error. […] Inhibition-response curves were analyzed by a nonlinear least-squares fitting program according to models involving one or two binding sites (Graphpad-Prism software).

[2] = system: Ca2+-activated and voltage-activated K+ currents; assay: Ca2+-activated and voltage-activated K+ currents, patch clamp; format: cell-based, rat; settings: 100 nM, sequential application
Procedure: For K^+ current recording, the patch-clamp pipette contained 130 mM KCl and the external solution contained 5.6 mM KCl. Ca^2+-activated and voltage-activated K^+ currents were elicited by depolarizing pulses from −80 to 0 mV and Ca^2+-activated K^+ currents were activated by the opening of Ca^2+ channel during the depolarization step.
Voltage-clamp and membrane current recordings were made with a standard patch-clamp technique using a List EPC-7 patch-clamp amplifier (Darmstadt-Eberstadt, Germany). Patch pipettes had resistances of 3–4 MΩ. […] Patch-clamp experiments were carried out at 30 ± 1 °C.
The normal physiological solution contained (in mM): NaCl 130, KCl 5.6, MgCl2 1, CaCl2 2, glucose 11 and HEPES 10, pH 7.4 with NaOH. The basic pipette solution contained (in mM) CsCl 130, HEPES 10 and pH 7.3 with NaOH (CsCl was replaced by KCl for potassium current measurements). […] Lqh peptides, chlorotoxin and other toxins were added in a bath solution.

Substance	inhibition of the Ca2+-activated Cl− current at 1 µM [1] [%]	effect on K+ currents (confirmation of both types of K+ currents) [2]
chlorotoxin	36 ± 9	
scyllatoxin (AFCNLRMCQLSCRSLGLLGKCIGDKCECVKH; UniProt P16341 1-31, looked up) [K+ channel toxin from Latoxan]		inhibition
charybdotoxin		inhibition
